Measured values as given in patent US20260021119A1, “TETRACYCLINE DERIVATIVES” (ICM (INSTITUT DU CERVEAU ET DE LA MOELLE ÉPINIÈRE), priority 2022, published 2026).

Experiments:
[1] = tested on: p-tau (phosphorylated tau protein at Ser202, Thr205 residues); test: p-tau (AT8) expression in cultured cortical neurons under oxidative stress; format: cell-based, mouse; parameters: key to Reduction of the % of p-tau+ somas: a favorable response, synonymous with a decrease in the number of p-tau+ cell bodies; ++: a favorable response, synonymous with a decrease in the number of p-tau+ cell bodies; +++=reference level; an unfavorable response is represented by a sign “−”, synonymous with an elevation of the number of p-tau+ cell bodies; overexpression of p-tau in cortical cell bodies: dose or concentration left out as unconfirmed
Method: A culture model of cortical neurons from mouse embryonic brain was used, in which neuronal cells were subjected to a maturation step until day in vitro (div) 7, before being gradually exposed to phenol red formulated DMEM/Nutrient mixture F12 Ham supplemented with 20 μg/mL of insulin, and 2 μM of the NMDA receptor blocker MK-801 (DF12i).
Precisely, after 4 days of exposure to DF12i, between 10-15% of surviving neurons show a very strong AT8 immunosignal in their somas while only 1 to 1.5% of neuronal cell bodies are found immunopositive under conditions where oxidative stress is repressed by treatment with bovine apotransferrin (APO; 100 µg/mL, Sigma Aldrich), a glycoprotein with iron chelating properties. Likewise, overexpression of p-tau in cortical cell bodies is reduced by the two non-antibiotic tetracyclines compound of formula (C) ([…]) and compound of formula (Ib) ([…]): see the following Table: […]

P. aeruginosa PA01 = test: MIC, standardized protocols (Example 9); format: cell-based; conditions: Pseudomonas aeruginosa
From the text: (§1) Bacterial strains used in this study were: S. aureus (ATCC25923), E. coli (ATCC28922), E. faecalis (ATCC29212) and P. aeruginosa (PA01). The minimum inhibitory concentrations (MICs) were estimated using standardized protocols (Mawabo et al, J. Infect. Public Health 2015).

E. coli ATCC 28922 = test: MIC, standardized protocols (Example 9); format: cell-based; conditions: Escherichia coli, ATCC28922
From the text: as §1

S. aureus ATCC 25923 = test: MIC, standardized protocols (Example 9); format: cell-based; conditions: Staphylococcus aureus, ATCC25923
From the text: as §1

E. faecalis ATCC 29212 = test: MIC, standardized protocols (Example 9); format: cell-based; conditions: Enterococcus faecalis, ATCC29212
From the text: as §1

4 test bacterial strains = test: Antimicrobial effects, summary over the 4 test bacterial strains (Example 9); format: cell-based
From the text: as §1

[2] = tested on: primary mouse microglial cells (TNF-a release, LPS 10 ng/ml); test: Anti-inflammatory effect in LPS-activated primary mouse microglial cells, TNF-a ELISA; format: cell-based
Method: Primary mouse microglial cells cultivated in Dulbecco's Modified Eagle Medium (DMEM) with no serum and 15 mM Hepes were challenged with lipopolysaccharide (LPS, 10 ng/ml) for 24 hours in the presence or not of the compound of formula (Ib) according to the present invention at concentrations of 1 μM, 5 μM, 25 μM and 50 μM. After that, the release of the proinflammatory cytokine TNF-a was estimated with an ELISA kit (ThermoFisher Scientific).

dopamine neurons = test: Neuroprotection in midbrain mouse cultures, survival of TH+ dopamine neurons; format: cell-based; conditions: 0.5 μM, 1 μM and 5 μM, div14
Method: (§2) Midbrain mouse cultures were subjected to a maturation step until day in vitro (div) 7, and then gradually exposed to phenol red formulated DMEM/Nutrient mixture F12 Ham supplemented with 20 μg/mL of insulin and 2 μM of the NMDA receptor blocker MK-801. Under these conditions, which favor low-level, sustained oxidative insults, and lead ultimately to dopamine cell death, treatments with the compound of formula (Ib) according to the invention (at a concentration ranging from 0.1 to 5 μM) were performed or not, as well as treatments with the reference tetracycline antibiotic doxycycline (DOX; 10 μM) and the glycoprotein apotransferrin (APO; 100 μg/mL), the latter being used as reference neuroprotectant. At div14, cultures were fixed, and then processed for tyrosine hydroxylase (TH) immunocytochemistry to estimate the survival of dopamine neurons.
as §2, with “(Ic)” for “(Ib)”, “with” for “with the reference tetracycline antibiotic doxycycline (DOX; 10 μM) and”

bacteria = test: Antimicrobial effect against bacteria (Example 13, no method given); format: cell-based

| SMILES | overexpression of p-tau in cortical cell bodies [1] | Reduction of the % of p-tau+ somas ([1]; compounds 3 μM, APO 100 μg/mL, mouse cortical cultures exposed div 7-11 to DF12i) | MIC (P. aeruginosa PA01) [µM] | MIC (E. coli ATCC 28922) [µM] | MIC (S. aureus ATCC 25923) [µM] | MIC (E. faecalis ATCC 29212) [µM] | antimicrobial effects against the 4 test bacterial strains (4 test bacterial strains) | reduction of proinflammatory effects of LPS (TNF-a release) ([2]; between 5 μM to 50 μM, LPS 10 ng/ml, 24 hours) | neuroprotective effect (survival of dopamine neurons) (dopamine neurons) | antimicrobial effect against bacteria (bacteria) | anti-inflammatory effects vis-à-vis 10 ng/mL LPS ([2]; 5 μM, 25 μM and 50 μM) |
| --- | --- | --- | --- | --- | --- | --- | --- | --- | --- | --- | --- |
| C[C@@]1(O)c2cccc(O)c2C(=O)C2=C(O)C3C(=O)C(C(N)=O)=C(O)C[C@@H]3[C@@H](O)[C@@H]21 (stereo partly drawn) [Compound of formula (Ib), (4aS,5R,5aR,6S)-3,5,6,10,12-pentahydroxy-6-methyl-1,11-dioxo-1,4,4a,5,5a,6,11,12a-octahydrotetracene-2-carboxamide] | reduced | +++ | > 200 | > 200 | 100 | 100 | effective against none of them | reduces significantly | highly protective |  |  |
| C[C@@]1(O)c2cccc(O)c2C(=O)C2=C(O)C3C(=O)C(C(N)=O)=C(O)CC3CC21 (stereo partly drawn) [Compound of formula (Ic)] |  |  |  |  |  |  |  |  | highly protective | does not show any antimicrobial effect | has anti-inflammatory effects |
